Literature values as cited in patent publication US20050208134A1, “Biocompatible polymeric beads and use thereof” (priority 2004, published 2005).

Settings: humans, administered orally

## O=C(CC1NCCCC1O)Cn1cnc2cc(Br)c(Cl)cc2c1=O (stereo not shown) [halofuginone]
  maximum tolerated dose with no adverse effects observed: 1 mg/day
